This is an account of results in article PMC5660193, “The antimalarial activity of the pantothenamide α-PanAm is via inhibition of pantothenate phosphorylation” (Scientific Reports, 2017).

The Ki is a measure of affinity in units of concentration, obtained from inhibition or displacement.

Holding throughout (format): biochemical
Assay [1] addresses T1, His6-CAB1 (Saccharomyces cerevisiae, UniProt Q04430).
T1 sequence (Q04430 1-367): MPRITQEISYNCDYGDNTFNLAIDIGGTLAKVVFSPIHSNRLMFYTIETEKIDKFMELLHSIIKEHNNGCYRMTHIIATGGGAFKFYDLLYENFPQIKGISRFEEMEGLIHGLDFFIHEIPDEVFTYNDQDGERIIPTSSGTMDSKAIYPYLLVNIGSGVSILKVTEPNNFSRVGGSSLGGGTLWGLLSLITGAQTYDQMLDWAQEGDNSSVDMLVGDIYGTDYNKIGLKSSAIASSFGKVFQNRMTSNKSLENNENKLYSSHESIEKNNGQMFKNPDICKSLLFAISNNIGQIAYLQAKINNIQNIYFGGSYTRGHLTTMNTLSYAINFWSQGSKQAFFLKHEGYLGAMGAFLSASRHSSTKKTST
In words: Kinase-Glo luminescent assay. The conditions noted are these: 10 µM compound, 100 µM pantothenate, 100 µM ATP, 10 mM MgCl2, pH 7.4, room temperature. In general terms: Kinase-Glo measures the ATP left after a reaction by luminescence.

Assay [2] concerns the target T2, Cab1p (yeast PanK) (Saccharomyces cerevisiae, UniProt Q04430).
T2 construct: gene CAB1; native untagged enzyme in cell-free extract of wild-type yeast
T2 sequence (Q04430 1-367): T1 sequence (Q04430 1-367)
In words: radioactive pantothenate kinase assay, double reciprocal plots. The note with it: competitive with pantothenate; 2.5 mM ATP, 2.5 mM MgCl2, pH 7.4, 30 °C; enzyme source for Ki not restated (yeast extract as for Km).

Assay [3] deals with T1, His6-CAB1. Kind of assay: radioactive pantothenate kinase assay. The conditions noted are these: 50 µM 14C-pantothenate, 2.5 mM ATP, 2.5 mM MgCl2, pH 7.4.
The target in assay [4] is T3, His6-CAB1 (Saccharomyces cerevisiae, UniProt Q04430, G351S).
T3 sequence (Q04430 1-367 G351S): T1 sequence (Q04430 1-367) with G351S
Kind of assay: radioactive pantothenate kinase assay. The note with it: 50 µM 14C-pantothenate, 2.5 mM ATP, 2.5 mM MgCl2, pH 7.4.

For assay [5], the target named is T1, His6-CAB1. In words: Kinase-Glo ATP depletion and LC-MS of phosphorylated product. The conditions noted are these: 10 µM compound, 100 µM ATP, no pantothenate, 10 mM MgCl2, pH 7.4, room temperature.

Structures are written as SMILES. Where a chain is given by its changes, count along the chain named.

Take `CSc1cccc(NC(=O)CCc2c(C)nc3c4cccnc4nn3c2C)c1` [NED7, 3-(2,4-dimethylpyrido-[2′,3′:3,4]pyrazolo[1,5-a]pyrimidin-3-yl)-N-(3-(methylthio)phenyl) propanamide]: the “inhibition at 10 μM” value in assay [1] is on record as “resulted in increased luciferase activity in the presence of Cab1”.
For the compound `CC(CNC(=O)[C@H](O)C(C)(C)CO)C(=O)NCCc1ccccc1` (stereo partly drawn) [α-PanAm, (2 R)-2,4-dihydroxy-3,3-dimethyl-N-(2-methyl-3-oxo-3-(phenethylamino)propyl)butanamide], the Ki in assay [2] was determined as 10.1 ± 0.85 µM. Also, the relative enzyme activity result in assay [3] was “PanK activities of purified His6-CAB1 and His6-cab1^G351S mutant proteins were measured”; in assay [4], “PanK activities of purified His6-CAB1 and His6-cab1^G351S mutant proteins were measured”. Besides, in assay [5], the “Kinase-Glo ATP depletion and LC-MS of phosphorylated product” value is “detected the mass of phosphorylated α-PanAm (P-α-PanAm) in the presence of active Cab1”.
